# Test results as given in US10294221B2, “1, 3, 4-thiadiazole compounds and their use in treating cancer” (AstraZeneca AB, priority 2014, dated 2019).
# Experiments:
# [1] = system: human NSCLC NCI-H1703 cells xenograft; assay: Mouse Xenograft Model, combination therapy study (NCI-H1703); format: in vivo; details: Male Scid mice
# Procedure: Male Scid mice were transplanted s.c. with human NSCLC NCI-H1703 cells (ATCC-CRL-5889) to determine the in-vivo anti-tumour activity of GLS inhibitors. 1×10^7 cells in 50% matrigel (BD Bioscience) were injected s.c. on the left flank of the animals.
# (§1) Animals were randomised into groups of 10-12 when tumours reached a volume of ˜200-300 mm^3 and treatment commenced. […] Tumours were measured twice weekly by calliper and volume of tumours calculated using elliptical formula (π/6×width×width×length). Statistical significance was evaluated using a one tailed, t-test. Taxotere® (Sanofi) was formulated in a physiological saline. Example 2 was formulated in a 1% Polysorbate 80 and pH adjusted with 1M HCL to a final pH concentration of pH3.5. Data is presented as mean tumour volume with calculated mean standard error bars.
# [2] = system: human NSCLC NCI-H3122 cells xenograft; assay: Mouse Xenograft Model, monotherapy (NCI-H3122); format: in vivo; details: Female Harlan Nude mice, 50 mg/kg once daily peroral for 17 days, monotherapy (FIG. 2)
# Procedure: as §1, with “Female Harlan Nude mice were transplanted s.c. with human NSCLC NCI-H3122 cells to determine the in-vivo anti-tumour activity of GLS inhibitors. 5×10^6 cells in 50% matrigel (BD Bioscience) were injected s.c. on the left flank of the animals. Animals” for “Animals”, “10-15” for “10-12”, “t-test.” for “t-test. Taxotere® (Sanofi) was formulated in a physiological saline.”
structure (smiles),measurement,setting,value
"CO[C@H](C(=O)Nc1nnc(N[C@@H]2CCN(c3cccnn3)C2)s1)c1ccccc1 [Example 2(a), (2S)-2-Methoxy-2-phenyl-N-[5-[[(3R)-1-pyridazin-3-ylpyrrolidin-3-yl]amino]-1,3,4-thiadiazol-2-yl]acetamide]","Tumour growth (mean tumour volume), NCI-H1703 xenograft, combination with Taxotere",[1]; 100 mg/kg once daily peroral for 16 days in combination with once weekly intra-venous Taxotere (FIG. 3),slight regression compared to Taxotere® monotherapy treatment
same,"Tumour growth (mean tumour volume), NCI-H1703 xenograft, monotherapy","[1]; 100 mg/kg once daily peroral for 16 days, monotherapy (FIG. 3)",inhibition of growth in-vivo
same,"Tumour growth (mean tumour volume), NCI-H3122 xenograft",[2],inhibition of growth in-vivo
